Test results reported in paper PMC4521925, “17β-Hydroxysteroid Dehydrogenase Type 2 Inhibition: Discovery of Selective and Metabolically Stable Compounds Inhibiting Both the Human Enzyme and Its Murine Ortholog” (PLoS ONE, 2015).

Tests used:
h17β-HSD2 = target: T1, h17β-HSD2 (Homo sapiens, UniProt P37059); assay: Inhibition of h17β-HSD2 in cell-free assay; format: biochemical; set-up: from tissue; host or cells: human placenta, microsomal fraction; details: for inhibition at 1 µM: read-out: % inh. at 1 μM h17β-HSD2; for s.f. (selectivity factor) = IC50(17β-HSD1)/IC50(17β-HSD2): human enzymes, cell-free
T1 sequence (P37059 1-387): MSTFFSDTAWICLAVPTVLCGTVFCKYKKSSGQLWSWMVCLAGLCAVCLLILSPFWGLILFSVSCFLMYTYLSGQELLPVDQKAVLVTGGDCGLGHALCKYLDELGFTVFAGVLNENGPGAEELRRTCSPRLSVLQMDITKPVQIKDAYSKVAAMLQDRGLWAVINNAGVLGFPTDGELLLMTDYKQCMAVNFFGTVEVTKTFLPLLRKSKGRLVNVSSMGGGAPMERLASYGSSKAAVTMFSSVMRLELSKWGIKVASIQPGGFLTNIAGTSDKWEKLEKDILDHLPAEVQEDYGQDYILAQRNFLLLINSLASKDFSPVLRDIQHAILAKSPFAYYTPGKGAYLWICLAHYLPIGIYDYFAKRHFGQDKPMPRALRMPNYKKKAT
Procedure: (§1) h17β-HSD2, h17β-HSD1, m17β-HSD2 and m17β-HSD1 cell-free assays were performed similarly, by incubating enzyme, tritiated substrate, cofactor and inhibitor, according to described procedures.
(§2) Cytosolic (h17β-HSD1) and microsomal (h17β-HSD2) fractions were obtained from human placenta according to previously described procedures. Fresh tissue was homogenized and the enzymes were separated from the mitochondria, cell membrane. Nucleus and other rests by fractional centrifugation at 1000 g, 10.000 g and 150.000 g. The pellet fraction containing the microsomal h17β-HSD2 was used for the determination of h17β-HSD2 inhibition, while h17β-HSD1 was obtained after precipitation with ammonium sulfate from the cytosolic fraction for use of testing of h17β-HSD1 inhibition. Aliquots containing h17β-HSD1 or h17β-HSD2 were stored frozen.
(§3) Inhibitory activities were evaluated following an established method with minor modifications. Briefly, the enzyme preparation was incubated with NAD^+ [1500 μM] in the presence of potential inhibitors at 37C in a phosphate buffer (50 mM) supplemented with 20% of glycerol and EDTA 1mM. Inhibitor stock solutions were prepared in DMSO. Final concentration of DMSO was adjusted to 1% in all samples. […] After 20 min, the incubation was stopped with HgCl2 and the mixture was extracted with ether. After evaporation, the steroids were dissolved in acetonitrile/water (45:55). […] Detection and quantification of the steroids were performed using a radioflow detector (Berthold Technologies, Bad Wildbad). […] Each value was calculated from at least two independent experiments.

h17β-HSD1 = target: T2, h17β-HSD1 (Homo sapiens, UniProt P14061); assay: Inhibition of h17β-HSD1 in cell-free assay; format: biochemical; details: human placental cytosolic fraction, substrate E1 [500 nM], cofactor NADH [500 μM]; for inhibition at 1 µM: read-out: % inh. at 1 μM h17β-HSD1
T2 construct: h17β-HSD1 was obtained after precipitation with ammonium sulfate from the cytosolic fraction; from tissue; host or cells: human placenta, cytosolic fraction
T2 sequence (P14061 1-328): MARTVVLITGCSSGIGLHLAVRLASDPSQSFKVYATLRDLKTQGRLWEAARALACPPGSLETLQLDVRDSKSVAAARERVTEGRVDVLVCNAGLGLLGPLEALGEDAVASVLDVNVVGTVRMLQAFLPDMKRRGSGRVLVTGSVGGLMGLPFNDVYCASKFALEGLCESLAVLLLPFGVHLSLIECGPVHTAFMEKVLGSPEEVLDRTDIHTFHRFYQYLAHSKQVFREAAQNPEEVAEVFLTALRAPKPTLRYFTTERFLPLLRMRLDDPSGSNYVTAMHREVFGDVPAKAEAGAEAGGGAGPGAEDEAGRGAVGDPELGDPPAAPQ
Procedure: as §1, §2
(§4) The 17β-HSD1 inhibition assay was performed similarly to the h17β-HSD2 test. The human cytosolic enzyme was incubated with NADH [500 μM] while the mouse recombinant enzyme was reacted with NADPH [500 μM].Test compound and a mixture of unlabelled- and [^3H]-E1 (final concentration: 500 nM, 0.15 μCi) were added and mixed for 10 min at 37°C. Further treatment of the samples and HPLC separation was carried out as mentioned above for h17β-HSD2.

m17β-HSD2 = target: T3, m17β-HSD2 (Mus musculus, UniProt P51658); assay: Inhibition of m17β-HSD2 in cell-free assay; format: biochemical; details: for inhibition at 1 µM: read-out: % inh. at 1 μM m17β-HSD2; for % inh. at 1 μM m17β-HSD2: mouse liver microsomal fraction, substrate E2 [500 nM], cofactor NAD+ [1500 μM], Table 1
T3 construct: The microsomal fraction (m17β-HSD2) was obtained from mouse liver as described for h17β-HSD2; tissue Pharmacelsus GmbH (mouse livers); host or cells: mouse liver, microsomal fraction
T3 sequence (P51658 1-381): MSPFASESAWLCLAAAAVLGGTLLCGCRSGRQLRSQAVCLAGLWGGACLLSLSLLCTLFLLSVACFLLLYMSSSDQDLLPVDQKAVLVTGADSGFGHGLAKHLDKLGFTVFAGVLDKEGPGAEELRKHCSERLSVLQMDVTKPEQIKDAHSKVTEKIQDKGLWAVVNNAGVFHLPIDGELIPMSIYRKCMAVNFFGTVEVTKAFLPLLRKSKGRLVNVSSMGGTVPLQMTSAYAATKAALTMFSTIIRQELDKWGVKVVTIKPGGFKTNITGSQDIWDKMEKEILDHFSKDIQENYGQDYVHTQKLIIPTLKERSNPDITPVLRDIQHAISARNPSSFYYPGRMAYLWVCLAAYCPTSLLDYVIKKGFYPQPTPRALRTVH
Procedure: as §1
The microsomal fraction (m17β-HSD2) was obtained from mouse liver as described for h17β-HSD2. Inhibitory activities were evaluated by a method identical to the one described for the human enzyme.
as §3

m17β-HSD1 = target: T4, m17β-HSD1 (Mus musculus, UniProt P51656); assay: Inhibition of m17β-HSD1 in cell-free assay; format: biochemical; details: recombinant m17β-HSD1, substrate E1 [500 nM], NADPH [500 μM]
T4 construct: host or cells: HEK 293 cells, transient transfection, 1000 g supernatant of the lysate
T4 sequence (P51656 1-344): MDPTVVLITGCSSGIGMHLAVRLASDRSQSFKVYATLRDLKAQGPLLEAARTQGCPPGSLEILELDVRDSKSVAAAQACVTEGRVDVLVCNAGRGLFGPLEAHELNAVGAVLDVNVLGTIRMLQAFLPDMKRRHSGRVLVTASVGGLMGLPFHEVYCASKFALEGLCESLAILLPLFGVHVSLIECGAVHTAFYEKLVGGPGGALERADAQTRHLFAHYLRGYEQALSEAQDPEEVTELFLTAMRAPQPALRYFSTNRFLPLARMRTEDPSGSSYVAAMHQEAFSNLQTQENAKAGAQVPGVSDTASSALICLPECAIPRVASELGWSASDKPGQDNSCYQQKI
Procedure: as §1
Recombinant m17β-HSD1 enzyme was produced by transfection of HEK 293 cells with a m17β-HSD1 expression plasmid (coding sequence of NM_010475 in pCMV6Entry vector, OriGene Technologies, Inc.) according to a described procedure. 48 hours after transfection cells were homogenized by sonication (3 x 10 s) in a buffer containing saccharose (40 mMTris, 250 mM saccharose, 5 mM EDTA, 7 mM DTT, 1 mM PMSF, pH 7,5). Cell lysate was centrifuged (1000 g, 15 min, 4°C) and 20% glycerol was added to the supernatant before aliquots were frozen and stored at -70°C.
as §4

Compound	inhibition at 1 µM (h17β-HSD2)	inhibition at 1 µM (h17β-HSD1)	inhibition at 1 µM (m17β-HSD2)	% inh. at 1 μM m17β-HSD2 (m17β-HSD2)	other results
COc1cccc(N(C)C(=O)c2ccc(-c3ccc4c(c3)OCO4)cc2)c1 [Compound 22a, 4-(Benzo[d][1, 3]dioxol-5-yl)-N-(3-methoxyphenyl)-N-methylbenzamide]	51%	< 10%	56%	–	melting point: 139 to 141 °C
COc1cccc(N(C)C(=O)c2ccc(-c3cccc(F)c3)s2)c1 [Compound 1h]	–	–	–	n.i. (n.i.: no inhibition, i.e., inhibition ≤10%)	–
CN(C(=O)c1ccc(-c2cccc(O)c2)cc1)c1cccc(O)c1 [Compound 7, 3'-Hydroxy-N-(3-hydroxyphenyl)-N-methyl-[1,1'-biphenyl]-4-carboxamide]	36%	15%	42%	–	melting point: 168 to 171 °C
COc1cccc(N(C)C(=O)c2ccc(-c3ccccc3OC)s2)c1 [Compound 1d]	–	–	–	19%	–
COc1cccc(N(C)C(=O)c2ccc(-c3cccc(F)c3)cc2)c1 [Compound 13a, 3'-Fluoro-N-(3-methoxyphenyl)-N-methyl-[1,1'-biphenyl]-4-carboxamide]	–	–	57%	–	melting point: 97 to 100 °C; IC50 (h17β-HSD2): 1 µM; s.f. (selectivity factor) = IC50(17β-HSD1)/IC50(17β-HSD2) (h17β-HSD2): 8; IC50 (h17β-HSD1): 8 µM
COc1cccc(C(=O)N(C)c2ccc(-c3cccc(OC)c3)cc2)c1 [Compound 24a, 3-Methoxy-N-(3'-methoxy-[1,1'-biphenyl]-4-yl)-N-methylbenzamide]	11%	< 10%	–	–	–
COc1cccc(N(C)C(=O)c2ccc(-c3ccc(F)c(F)c3)cc2)c1 [Compound 18a, 3',4'-Difluoro-N-(3-methoxyphenyl)-N-methyl-[1,1'-biphenyl]-4-carboxamide]	31%	< 10%	–	–	–
COc1ccc(N(C)C(=O)c2ccc(-c3cccc(OC)c3)cc2)cc1 [Compound 11a, 3'-Methoxy-N-(4-methoxyphenyl)-N-methyl-[1,1'-biphenyl]-4-carboxamide]	27%	< 10%	58%	–	–
Cc1cccc(-c2ccc(C(=O)N(C)c3cccc(C)c3)s2)c1 [Compound 1b]	–	–	–	42%	–
COc1cccc(N(C)C(=O)c2ccc(-c3ccc(OC)c(OC)c3)cc2)c1 [Compound 16a, 3',4'-Dimethoxy-N-(3-methoxyphenyl)-N-methyl-[1,1'-biphenyl]-4-carboxamide]	–	–	52%	–	melting point: 153 to 156 °C; IC50 (h17β-HSD2): 0.52 µM; s.f. (selectivity factor) = IC50(17β-HSD1)/IC50(17β-HSD2) (h17β-HSD2): 164; IC50 (h17β-HSD1): 85.5 µM
COc1cccc(N(C)C(=O)c2ccc(-c3ccc(C#N)cc3)s2)c1 [Compound 1i]	–	–	–	n.i. (n.i.: no inhibition, i.e., inhibition ≤10%)	–
COc1ccc(-c2ccc(C(=O)N(C)c3ccc(OC)cc3)cc2)cc1 [Compound 12a, 4'-Methoxy-N-(4-methoxyphenyl)-N-methyl-[1,1'-biphenyl]-4-carboxamide]	19%	< 10%	62%	–	melting point: 129 to 132 °C
CN(Cc1cccc(O)c1)C(=O)c1cccc(-c2ccc(O)cc2)c1 [Compound 4f]	–	–	–	22%	–
COc1cccc(N(C)C(=O)c2ccc(-c3ccccc3OC)cc2)c1 [Compound 9a, 2'-Methoxy-N-(3-methoxyphenyl)-N-methyl-[1,1'-biphenyl]-4-carboxamide]	50%	< 10%	33%	–	–
COc1ccc(-c2cccc(C(=O)N(C)c3cccc(OC)c3)c2)cc1 [Compound 4b]	–	–	–	11%	–
COc1cccc(CN(C)C(=O)c2cccc(-c3cccc(OC)c3)c2)c1 [Compound 4d]	–	–	–	n.i. (n.i.: no inhibition, i.e., inhibition ≤10%)	–
Cc1cccc(-c2ccc(C(=O)N(C)c3cccc(C)c3)cc2)c1 [Compound 3a]	–	–	50%	–	–
COc1cccc(N(C)C(=O)c2ccc(-c3ccccc3)cc2)c1 [Compound 8a, N-(3-methoxyphenyl)-N-methyl-[1,1'-biphenyl]-4-carboxamide]	51%	22%	48%	–	melting point: 102 to 104 °C
CN(C(=O)c1cccc(-c2cccc(O)c2)c1)c1cccc(O)c1 [Compound 4c]	–	–	–	n.i. (n.i.: no inhibition, i.e., inhibition ≤10%)	–
COc1cccc(N(C)C(=O)c2ccc(-c3cccc(N(C)C)c3)cc2)c1 [Compound 15a, 3'-(Dimethylamino)-N-(3-methoxyphenyl)-N-methyl-[1,1'-biphenyl]-4-carboxamide]	–	–	67%	–	inhibition of m17β-HSD1 at 1 μM (m17β-HSD1): None of the tested compounds showed any inhibition; IC50 (h17β-HSD2): 0.65 µM; s.f. (selectivity factor) = IC50(17β-HSD1)/IC50(17β-HSD2) (h17β-HSD2): 8; IC50 (h17β-HSD1): 5 µM
CN(C(=O)c1ccc(-c2ccccc2O)s1)c1cccc(O)c1 [Compound 1f]	–	–	–	18%	–
